Measured values reported in patent US4352885A, “Preparation of a novel NADP linked alcohol-aldehyde/ketone oxidoreductase from thermophilic anaerobic bacteria for analytical and commercial use” (Wisconsin Alumni Research Foundation, priority 1980, dated 1982).

How the values were obtained:
[1] = target: T1, NADP linked alcohol dehydrogenase (alcohol-aldehyde/ketone oxidoreductase) (Thermoanaerobacter brockii, UniProt P14941); test: Specific activity of partially purified NADP linked alcohol dehydrogenase with alcohols and carbonyl compounds (absorbance at 334 nm); type: biochemical, Thermoanaerobium brockii; conditions: for Activity V/mg. at 60° C.: saturating substrate (0.2-0.5 M alcohol or ketone, 10 mM acetaldehyde), 0.5 mM NADP or 0.2 mM NADPH, 0.1 M Tris-Cl pH 7.8; for Optimum pH: Tris-Cl buffers, acetaldehyde reduction or sec-butanol oxidation; for Reaction as substrate: tested as substrates; for Activity with the substance as coenzyme: as coenzymes instead of NADP/NADPH
T1 construct: of the T. brockii enzyme preparation with various alcohols and carbonyl compounds; made in house; host or cells: T. brockii itself (native host; partially purified enzyme)
T1 sequence (P14941 1-352): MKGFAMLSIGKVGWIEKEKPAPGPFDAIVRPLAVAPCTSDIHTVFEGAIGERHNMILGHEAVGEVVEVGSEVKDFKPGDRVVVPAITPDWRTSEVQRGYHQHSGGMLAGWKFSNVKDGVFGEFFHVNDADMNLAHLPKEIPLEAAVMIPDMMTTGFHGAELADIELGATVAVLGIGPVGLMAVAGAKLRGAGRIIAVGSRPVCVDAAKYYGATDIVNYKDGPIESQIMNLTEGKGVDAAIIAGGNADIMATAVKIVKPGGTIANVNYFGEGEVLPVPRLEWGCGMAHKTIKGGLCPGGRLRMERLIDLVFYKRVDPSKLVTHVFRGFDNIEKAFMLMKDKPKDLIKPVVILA

[2] = target: T2, NADP linked alcohol dehydrogenase (secondary alcohol dehydrogenase activity) (Thermoanaerobacter brockii, UniProt P14941); test: Effects of metal ions, complexing agents and thiol reagents on the enzyme; type: biochemical, Thermoanaerobium brockii; conditions: for Reactivation of PCMB inhibited enzyme: 5 mM DTT, within a few minutes, 1 mM ZnSO4
T2 construct: The NADP linked alcohol dehydrogenase derived from T. brockii can be immobilized; made in house; host or cells: T. brockii itself (native host)
T2 sequence (P14941 1-352): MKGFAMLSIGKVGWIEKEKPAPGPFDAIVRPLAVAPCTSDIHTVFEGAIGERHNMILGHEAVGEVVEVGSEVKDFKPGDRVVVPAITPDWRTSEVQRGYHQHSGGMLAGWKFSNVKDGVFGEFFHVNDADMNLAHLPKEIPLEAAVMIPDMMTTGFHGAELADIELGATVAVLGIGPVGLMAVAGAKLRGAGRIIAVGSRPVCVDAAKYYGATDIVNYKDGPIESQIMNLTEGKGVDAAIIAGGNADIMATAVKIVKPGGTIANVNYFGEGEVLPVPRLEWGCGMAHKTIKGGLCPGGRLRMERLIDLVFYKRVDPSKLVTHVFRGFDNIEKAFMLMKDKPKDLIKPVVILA
Description: Metal ions, complexing agents and thiol reagents had the following effects.
Each of the above studies were performed at 40° C.

T. brockii cultures = test: Reduction of ketones by T. brockii cultures; type: cell-based, Thermoanaerobium brockii; conditions: 0.5% ketone in TYEG medium; 60° C.; 15 hours incubation
Description: T. brockii was incubated at 60° C. in anaerobic culture tubes containing the previously described TYEG medium supplemented with 0.5% acetone or butanone. More than 50% of each ketone was converted to the corresponding alcohol after 15 hours incubation. Growth of the organism ceased once the pH fell below 5.0. The reaction is indicated in FIG. 1 when acetone is substituted for glucose to produce the corresponding secondary isopropanol.

[3] = Thermostability and storage stability of the alcohol dehydrogenase; type: physicochemical, Thermoanaerobium brockii
Description: The immobilized alcohol dehydrogenase of example 2 was packed in a small flow cell which allowed amperometric measurement of NAPDH concentration, using a glossy carbon and Ag/Cl electrode with 0.8 volt potential difference. A soltuion containing 0.05 mM NADP and varying concentrations of sec. butanol 10-100 micro molar were passed through the cell and gave a signal which depended on the concentration of alcohol. Alternatively, solutions that contained 10 mM NADPH and varying concentrations of acetone produced signals which decreased linearly with increasing concentrations of acetone at 0-200 mM. Potassium phosphate buffer at 500 mM and pH 7.5 was used in these experiments. The immobilized enzyme system for measurement of ketones and alcohols was stable for 2 weeks at room temperature.

[4] = substrate: CC=O; test: Specific activity of partially purified NADP linked alcohol dehydrogenase with alcohols and carbonyl compounds (absorbance at 334 nm); type: biochemical, Thermoanaerobium brockii; conditions: other: substrate concentration giving half-maximal velocity; pH 7.8; 40.0 °C
[5] = substrate: CCC(C)O; test: purified protein, by the assay type; conditions: other: substrate concentration giving half-maximal velocity; pH 7.8; 40.0 °C

| Molecule | Activity V/mg. at 60° C. [1] [μ Mole/Min./Mg Protein] | other results |
| --- | --- | --- |
| O=C1CC2CCC1C2 (centres unmarked) | 4.9 | – |
| 2-Cyclohexanone | 4.9 | – |
| O[C@H](CS)[C@H](O)CS (racemic) [DTT, dithiothreitol] | – | Reactivation of PCMB inhibited enzyme ([2]; 40° C.): Complete reversal of the PCMB inhibition |
| CC1CCCCC1=O (centres unmarked) [2-Methyl Cyclohexanone] | 6.0 | – |
| CC1CCCC(=O)C1 (centres unmarked) [3-Methyl Cyclohexanone] | 2.0 | – |
| CC1CCC(=O)CC1 [4-Methyl Cyclohexanone] | 0.5 | – |
| Oc1cccc2cccnc12 [8-hydroxyquinoline] | – | Inhibition of activity by complexing agents [2]: did not significantly inhibit activity |
| C=CC(O)CC (centres unmarked) [CH2CHCH(OH)CH2 CH3] | 65.0 | – |
| CC(C)CO [CH3 CH2 (CH3)CH2 OH] | 3.1 | – |
| CCC(C)CO (centres unmarked) [CH3 CH2 CH2 (CH3)CH2 OH] | 3.0 | – |
| CCCCCO [CH3 CH2 CH2 CH2 CH2 OH] | 0.9 | – |
| CCCCO [CH3 CH2 CH2 CH2 OH] | 4.1 | – |
| CCCO [CH3 CH2 CH2 OH] | 3.6 | – |
| CCC(C)O (centres unmarked) [CH3 CH2 CH(OH)CH3, sec-butanol] | 78.0 | Optimum pH [1]: 7.8-9.0 |
| CCO [CH3 CH2 OH] | 3.2 | – |
| CC(O)CC(C)O (centres unmarked) [CH3 CH(OH)CH2 CH(OH)CH3] | 2.6 | – |
| CC(C)O [CH3 CH(OH)CH3, isopropanol] | 59.0 | – |
| CC=O [CH3 CHO, acetaldehyde] | 7.8 | Optimum pH [1]: 7.8 |
| CCC(C)=O [CH3 COCH2 CH3, butanone] | 7.6 | Ketone converted to the corresponding alcohol (T. brockii cultures): More than 50% |
| CC(C)=O [CH3 COCH3, acetone] | 10.4 | Ketone converted to the corresponding alcohol (T. brockii cultures): More than 50% |
| CO [CH3 OH] | 0 | – |
| [Ca+2].[Cl-].[Cl-] [CaCl2] | – | Activation or inhibition by metal salts ([2]; 1 mM, 40° C.): no significant activation or inhibition |

| Molecule | Activity V/mg. at 60° C. [1] [μ Mole/Min./Mg Protein] | other results |
| --- | --- | --- |
| [Cl][Cu][Cl] [CuCl2] | – | Activation or inhibition by metal salts ([2]; 1 mM, 40° C.): no significant activation or inhibition |
| O=C1CCCCCC1 [Cycloheptanone] | 3.0 | – |
| OC1CCCCC1 [Cyclohexanol] | 12.2 | – |
| O=C1CCCCC1 [Cyclohexanone] | 6.2 | – |
| O=C1CCCCCCC1 [Cyclooctanone] | 0 | – |
| O=C1CCCC1 [Cyclopentanone] | 6.0 | – |
| O=C(O)CN(CCN(CC(=O)O)CC(=O)O)CC(=O)O [EDTA, ethylenediamine-tetraacetic acid, reference compound] | – | Effect on thermostability of the enzyme ([3]; millimolar concentrations): did not decrease thermostability; Inhibition of activity by complexing agents [2]: did not significantly inhibit activity |
| C[C@H](O)C(=O)O [L-lactic acid] | – | Reaction as substrate [1]: did not react |
| CC(=O)C1CC1 [Methyl cyclopropyl ketone] | 0.5 | – |
| [Cl-].[Cl-].[Mg+2] [MgCl2] | – | Activation or inhibition by metal salts ([2]; 1 mM, 40° C.): no significant activation or inhibition |
| NC(=O)c1ccc[n+]([C@@H]2O[C@H](COP(=O)([O-])OP(=O)(O)OC[C@H]3O[C@@H](n4cnc5c(N)ncnc54)[C@H](O)[C@@H]3O)[C@@H](O)[C@H]2O)c1 [NAD, reference compound] | – | Activity with the substance as coenzyme [1]: No activity |
| NC(=O)C1=CN([C@@H]2O[C@H](COP(=O)(O)OP(=O)(O)OC[C@H]3O[C@@H](n4cnc5c(N)ncnc54)[C@H](O)[C@@H]3O)[C@@H](O)[C@H]2O)C=CC1 [NADH, reference compound] | – | Activity with the substance as coenzyme [1]: No activity |
| NC(=O)c1ccc[n+]([C@@H]2O[C@H](COP(=O)([O-])OP(=O)(O)OC[C@H]3O[C@@H](n4cnc5c(N)ncnc54)[C@H](OP(=O)(O)O)[C@@H]3O)[C@@H](O)[C@H]2O)c1 [NADP, Nicotinamide adenine dinucleotide phosphate] | – | Apparent Michaelis constant KM (coenzymes) [1]: in the micromolar range |
| NC(=O)C1=CN([C@@H]2O[C@H](COP(=O)(O)OP(=O)(O)OC[C@H]3O[C@@H](n4cnc5c(N)ncnc54)[C@H](OP(=O)(O)O)[C@@H]3O)[C@@H](O)[C@H]2O)C=CC1 [NADPH, reference compound] | – | Apparent Michaelis constant KM (coenzymes) [1]: in the micromolar range |
| CCN1C(=O)C=CC1=O [NEM, N-ethylmaleimide] | – | Inactivation of the enzyme ([2]; 1 mM, slow (15 min.), 40° C.): inactivated the enzyme |
| O=C(O)c1cc[c]([Hg][Cl])cc1 [PCMB, parachloromercuricbenzoate] | – | Reaction of thiol reagent with the enzyme (inhibition) ([2]; 0.05 mM, 40° C.): reacted instantly |
| [Cl-].[Cl-].[Zn+2] [ZnCl2] | – | Activation or inhibition by metal salts ([2]; 1 mM, 40° C.): no significant activation or inhibition |
| O=S(=O)([O-])[O-].[Zn+2] [ZnSO4] | – | Reactivation of PCMB inhibited enzyme ([2]; 40° C.): necessary for complete reactivation |
| OCC(O)CO [glycerol] | – | Reaction as substrate [1]: did not react |
| c1cnc2c(c1)ccc1cccnc12 [orthophenanthroline] | – | inhibition at 2000 µM ([2]; 2 mM, 40° C., read-out: Inhibitory effect on secondary alcohol dehydrogenase activity): 15 to 20% |
| NADP linked alcohol dehydrogenase (alcohol-aldehyde/ketone oxidoreductase) (Thermoanaerobacter brockii) (protein, of the T. brockii enzyme preparation with various alcohols and carbonyl compounds; made in house; host or cells: T. brockii itself (native host; partially purified enzyme)) MKGFAMLSIGKVGWIEKEKPAPGPFDAIVRPLAVAPCTSDIHTVFEGAIGERHNMILGHEAVGEVVEVGSEVKDFKPGDRVVVPAITPDWRTSEVQRGYHQHSGGMLAGWKFSNVKDGVFGEFFHVNDADMNLAHLPKEIPLEAAVMIPDMMTTGFHGAELADIELGATVAVLGIGPVGLMAVAGAKLRGAGRIIAVGSRPVCVDAAKYYGATDIVNYKDGPIESQIMNLTEGKGVDAAIIAGGNADIMATAVKIVKPGGTIANVNYFGEGEVLPVPRLEWGCGMAHKTIKGGLCPGGRLRMERLIDLVFYKRVDPSKLVTHVFRGFDNIEKAFMLMKDKPKDLIKPVVILA | – | Km [4]: 150 µM; Km [5]: 500 µM |
| immobilized enzyme system: T. brockii alcohol dehydrogenase immobilized on sepharose 4B-CnBr, packed in a flow cell (protein, UniProt P14941 1-352, looked up, immobilized on CNBr-Sepharose 4B) NADP-dependent isopropanol …: MKGFAMLSIGKVGWIEKEKPAPGPFDAIVRPLAVAPCTSDIHTVFEGAIGERHNMILGHEAVGEVVEVGSEVKDFKPGDRVVVPAITPDWRTSEVQRGYHQHSGGMLAGWKFSNVKDGVFGEFFHVNDADMNLAHLPKEIPLEAAVMIPDMMTTGFHGAELADIELGATVAVLGIGPVGLMAVAGAKLRGAGRIIAVGSRPVCVDAAKYYGATDIVNYKDGPIESQIMNLTEGKGVDAAIIAGGNADIMATAVKIVKPGGTIANVNYFGEGEVLPVPRLEWGCGMAHKTIKGGLCPGGRLRMERLIDLVFYKRVDPSKLVTHVFRGFDNIEKAFMLMKDKPKDLIKPVVILA | – | Time stable ([3]; room temperature, immobilized on sepharose in flow cell): 2 weeks |
